Data taken from patent publication US8946203B2, “Benzodioxane inhibitors of leukotriene production” (Boehringer Ingelheim International GmbH, priority 2012, dated 2015).

These compounds were tested against T1, human LTA4 hydrolase (Homo sapiens, UniProt P09960) (assay: LTA4H Enzyme assay (cleavage of Arg-AMC, fluorescence)). Conditions: LTA4H Enzyme 1 nM, Arg-AMC substrate 50 μM, room temperature 1 h, fluorescence; read-out: IC50 values of LTA4H Enzyme assay.
T1 sequence (P09960 1-611): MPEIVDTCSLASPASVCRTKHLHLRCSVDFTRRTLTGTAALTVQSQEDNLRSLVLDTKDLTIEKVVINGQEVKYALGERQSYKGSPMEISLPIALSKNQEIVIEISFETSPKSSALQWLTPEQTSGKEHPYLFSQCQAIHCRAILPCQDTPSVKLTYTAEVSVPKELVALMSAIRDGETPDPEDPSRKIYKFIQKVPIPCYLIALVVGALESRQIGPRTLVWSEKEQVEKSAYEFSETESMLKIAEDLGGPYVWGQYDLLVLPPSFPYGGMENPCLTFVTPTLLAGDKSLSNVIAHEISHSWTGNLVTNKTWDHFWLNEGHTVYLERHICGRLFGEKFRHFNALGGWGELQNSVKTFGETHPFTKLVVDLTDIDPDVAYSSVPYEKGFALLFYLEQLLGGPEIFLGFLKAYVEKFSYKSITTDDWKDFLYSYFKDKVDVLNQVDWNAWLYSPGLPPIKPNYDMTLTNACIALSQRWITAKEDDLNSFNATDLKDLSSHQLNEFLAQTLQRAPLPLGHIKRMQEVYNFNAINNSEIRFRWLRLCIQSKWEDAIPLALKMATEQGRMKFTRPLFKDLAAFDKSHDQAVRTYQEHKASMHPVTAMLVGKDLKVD
Assay type: biochemical
In short: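 Aminomethylcoumarin release measured fluorimetrically (380/460 nm) after 1 h at room temperature. Reaction: 1 nM final enzyme, 50 μM final Arg-AMC and compound in Tris-HCl pH 7.5 with 100 mM KCl and 0.5% BSA.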

Row | Structure (SMILES) | IC50 [nM]
1 | O=C1CCN(Cc2ccc([C@H]3COc4cccnc4O3)cc2)CCN1 [Example 132, 1-{4-[(3S)-2,3-dihydro[1,4]dioxino[2,3-b]pyridin-3-yl]benzyl}-1,4-diazepan-5-one] | 0.91
2 | c1cnc2c(c1)OC[C@H](c1ccc(CNC3CCCC3)cc1)O2 [Example 135, N-{4-[(3S)-2,3-dihydro[1,4]dioxino[2,3-b]pyridin-3-yl]benzyl}cyclopentanamine] | 0.47
3 | NC(=O)C1CCCN(Cc2ccc([C@H]3COc4cccnc4O3)cc2)C1 (stereo partly drawn) [Example 136, 1-{4-[(3S)-2,3-dihydro[1,4]dioxin[2,3-b]pyridin-3-yl]benzyl}piperidine-3-carboxamide] | 0.19
4 | CN1CCCN(Cc2ccc([C@H]3COc4cccnc4O3)cc2)CC1 [Example 143, (3S)-3-{4-[(4-methyl-1,4-diazepan-1-yl)methyl]phenyl}-2,3-dihydro[1,4]dioxino[2,3-b]pyridine] | 0.3
5 | O[C@@H]1CCN(Cc2ccc([C@H]3COc4cccnc4O3)cc2)C1 [Example 144, (3R)-1-{4-[(3S)-2,3-dihydro[1,4]dioxino[2,3-b]pyridin-3-yl]benzyl}pyrrolidin-3-ol] | 0.14
6 | OCC1CCN(Cc2ccc([C@H]3COc4cccnc4O3)cc2)CC1 [Example 146, (1-{4-[(3S)-2,3-dihydro[1,4]dioxino[2,3-b]pyridin-3-yl]benzyl}piperidin-4-yl)methanol] | 0.29
7 | O[C@H]1CCN(Cc2ccc([C@H]3COc4cccnc4O3)cc2)C1 [Example 147, (3S)-1-{4-[(3S)-2,3-dihydro[1,4]dioxino[2,3-b]pyridin-3-yl]benzyl}pyrrolidin-3-ol] | 0.35
8 | CC(=O)N1CCCN(Cc2ccc([C@H]3COc4cccnc4O3)cc2)CC1 [Example 148, 1-(4-{4-[(3S)-2,3-dihydro[1,4]dihydro[2,3-b]pyridin-3-yl]benzyl}-1,4-diazepan-1-yl)ethanone] | 0.28
9 | OCCCC1CCN(Cc2ccc([C@H]3COc4cccnc4O3)cc2)CC1 [Example 149, 3-(1-{4-[(3S)-2,3-dihydro[1,4]dioxino[2,3-b]pyridin-3-yl]benzyl}piperidin-4-yl)propan-1-ol] | 0.24
10 | c1cnc2c(c1)OC[C@H](c1ccc(CN3CCCOCC3)cc1)O2 [Example 150, (3S)-3-[4-(1,4-oxazepan-4-ylmethyl)phenyl]-2,3-dihydro[1,4]dioxino[2,3-b]pyridine] | 0.21
11 | O=C(O)CCCC1CCN(Cc2ccc([C@H]3COc4cccnc4O3)cc2)CC1 [Example 151, 4-(1-{4-[(3S)-2,3-dihydro[1,4]dioxino[2,3-b]pyridin-3-yl]benzyl}piperidin-4-yl)butanoic acid] | 0.1
12 | CNC(=O)C1CCN(Cc2ccc([C@H]3COc4cccnc4O3)cc2)CC1 [Example 152, 1-{4-[(3S)-2,3-dihydro[1,4]dioxino[2,3-b]pyridin-3-yl]benzyl}-N-methylpiperidine-4-carboxamide] | 0.17
13 | CC(=O)N1CCC(NCc2ccc([C@H]3COc4cccnc4O3)cc2)CC1 [Example 153, 1-[4-({4-[(3S)-2,3-dihydro[1,4]dioxino[2,3-b]pyridin-3-yl]benzyl}amino)piperidin-1-yl]ethanone] | 0.82
14 | O=C(NCCO)C1CCN(Cc2ccc([C@H]3COc4cccnc4O3)cc2)CC1 [Example 154, 1-{4-[(3S)-2,3-dihydro[1,4]dioxino[2,3-b]pyridin-3-yl]benzyl}-N-(2-hydroxyethyl)piperidine-4-carboxamide] | 0.2
15 | CNC(=O)C1CCN(Cc2ccc([C@H]3COc4ccccc4O3)cc2)CC1 [Example 179, 1-{4-[(2S)-2,3-dihydro-1,4-benzodioxin-2-yl]benzyl}-N-methylpiperidine-4-carboxamide] | 0.16

Results, then the compound that gave them:

Row | IC50 [nM] | Structure (SMILES)
16 | 0.18 | CC(C)(CN1CCCC1)NCc1ccc([C@H]2COc3cccnc3O2)cc1 [Example 157, N-{4-[(3S)-2,3-dihydro[1,4]dioxino[2,3-b]pyridin-3-yl]benzyl}-2-methyl-1-(pyrrolidin-1-yl)propan-2-amine]
17 | 0.16 | N#CC1CCN(Cc2ccc([C@H]3COc4cccnc4O3)cc2)CC1 [Example 159, 1-{4-[(3S)-2,3-dihydro[1,4]dioxino[2,3-b]pyridin-3-yl]benzyl}piperidine-4-carbonitrile]
18 | 0.41 | O=S1(=O)CCN(Cc2ccc([C@H]3COc4cccnc4O3)cc2)CC1 [Example 161, (3S)-3-{4-[(1,1-dioxidothiomorpholin-4-yl)methyl]phenyl}-2,3-dihydro[1,4]dioxino[2,3-b]pyridine]
19 | 0.14 | O=C(C1CCN(Cc2ccc([C@H]3COc4cccnc4O3)cc2)CC1)N1CCOCC1 [Example 162, (1-{4-[(3S)-2,3-dihydro[1,4]dioxino[2,3-b]pyridin-3-yl]benzyl}piperidin-4-yl)(morpholin-4-yl)methanone]
20 | 0.17 | O=C1CCCN1CC1CCCN(Cc2ccc([C@H]3COc4cccnc4O3)cc2)C1 (stereo partly drawn) [Example 163, 1-[(1-{4-[(3S)-2,3-dihydro[1,4]dioxino[2,3-b]pyridin-3-yl]benzyl}piperidin-3-yl)methyl]pyrrolidin-2-one]
21 | 0.13 | O=C1NC(=O)C2(CCN(Cc3ccc([C@H]4COc5cccnc5O4)cc3)CC2)N1 [Example 165, 8-{4-[(3S)-2,3-dihydro[1,4]dioxin[2,3-b]pyridin-3-yl]benzyl}-1,3,8-triazaspiro[4.5]decane-2,4-dione]
22 | 0.68 | COC1CN(Cc2ccc([C@H]3COc4cccnc4O3)cc2)C1 [Example 166, (3S)-3-{4-[(3-methoxyazetidin-1-yl)methyl]phenyl}-2,3-dihydro[1,4]dioxino[2,3-b]pyridine]
23 | 0.27 | CS(=O)(=O)N1CCC(NCc2ccc([C@H]3COc4cccnc4O3)cc2)CC1 [Example 167, N-{4-[(3S)-2,3-dihydro[1,4]dioxino[2,3-b]pyridin-3-yl]benzyl}-1-(methylsulfonyl)piperidin-4-amine]
24 | 0.33 | CN(Cc1ccc([C@H]2COc3cccnc3O2)cc1)C1CCN(S(C)(=O)=O)CC1 [Example 169, N-{4-[(3S)-2,3-dihydro[1,4]dioxino[2,3-b]pyridin-3-yl]benzyl}-N-methyl-1-(methylsulfonyl)piperidin-4-amine]
25 | 0.47 | COCCOC1CCN(Cc2ccc([C@H]3COc4cccnc4O3)cc2)CC1 [Example 170, (3S)-3-(4-{[4-(2-methoxyethoxy)piperidin-1-yl]methyl}phenyl)-2,3-dihydro[1,4]dioxino[2,3-b]pyridine]
26 | 0.45 | CN(C)C(=O)CC1CCN(Cc2ccc([C@H]3COc4cccnc4O3)cc2)CC1 [Example 171, 2-(1-{4-[(3S)-2,3-dihydro[1,4]dioxino[2,3-b]pyridin-3-yl]benzyl}piperidin-4-yl)-N,N-dimethylacetamide]
27 | 0.53 | CS(=O)(=O)C1CCN(Cc2ccc([C@H]3COc4cccnc4O3)cc2)CC1 [Example 172, (3S)-3-(4-{[4-(methylsulfonyl)piperidin-1-yl]methyl}phenyl)-2,3-dihydro[1,4]dioxin[2,3-b]pyridine]
28 | 0.24 | CS(=O)(=O)NC1CCN(Cc2ccc([C@H]3COc4ccccc4O3)cc2)CC1 [Example 176, N-(1-{4-[(2S)-2,3-dihydro-1,4-benzodioxin-2-yl]benzyl}piperidin-4-yl)methanesulfonamide]
29 | 1.45 | N#CC1CCN(Cc2ccc([C@H]3COc4ccccc4O3)cc2)CC1 [Example 177, 1-{4-[(2S)-2,3-dihydro-1,4-benzodioxin-2-yl]benzyl}piperidine-4-carbonitrile]
30 | 0.12 | O=C(C1CCN(Cc2ccc([C@H]3COc4ccccc4O3)cc2)CC1)N1CCOCC1 [Example 180, (1-{4-[(2S)-2,3-dihydro-1,4-benzodioxin-2-yl]benzyl}piperidin-4-yl)(morpholin-4-yl)methanone]
31 | 0.042 | O=C(O)CCCC1CCN(Cc2ccc([C@H]3COc4ccccc4O3)cc2)CC1 [Example 181, 4-(1-{4-[(2S)-2,3-dihydro-1,4-benzodioxin-2-yl]benzyl}piperidin-4-yl)butanoic acid]
32 | 0.29 | O=C(O)C[C@H]1CCCN(Cc2ccc([C@H]3COc4ccccc4O3)cc2)C1 [Example 182, [(3R)-1-{4-[(2S)-2,3-dihydro-1,4-benzodioxin-2-yl]benzyl}piperidin-3-yl]acetic acid]
33 | 0.11 | O=C(O)C[C@H]1CCN(Cc2ccc([C@H]3COc4ccccc4O3)cc2)C1 [Example 184, [(3R)-1-{4-[(2S)-2,3-dihydro-1,4-benzodioxin-2-yl]benzyl}pyrrolidin-3-yl]acetic acid]
34 | 0.87 | CS(=O)(=O)N1CCN(Cc2ccc([C@H]3COc4cccnc4O3)cc2)CC1 [Example 188, (3S)-3-(4-{[4-(methylsulfonyl)piperazin-1-yl]methyl}phenyl)-2,3-dihydro[1,4]dioxino[2,3-b]pyridine]
35 | 0.16 | O=C(O)C1CCN(Cc2ccc([C@H]3COc4cccnc4O3)cc2)CC1 [Example 189, 1-{4-[(3S)-2,3-dihydro[1,4]dioxino[2,3-b]pyridin-3-yl]benzyl}piperidine-4-carboxylic acid]
